Laboratory results published in ChEMBL document CHEMBL3044562, “Survival and developmental impairment induced by the trypsin inhibitor bis-benzamidine in the velvetbean caterpillar (Anticarsia gemmatalis)” (Crop Prot, 2011).
Activity calls are given as the source filed them.

Columns and labels:
Type in all cases: functional, organism-based
Anticarsia gemmatalis [1] = experiment: Insecticidal activity against Anticarsia gemmatalis (velvetbean caterpillar) assessed as reduction in survival time at over 150 ppm
Anticarsia gemmatalis [2] = experiment: Insecticidal activity against Anticarsia gemmatalis (velvetbean caterpillar) assessed as specific amidolytic and esterolytic activity in midgut at 9.5 ppm
Anticarsia gemmatalis [3] = experiment: Insecticidal activity against Anticarsia gemmatalis (velvetbean caterpillar) assessed as decrease in pupa weight upto 80 ppm
Anticarsia gemmatalis [4] = experiment: Increase in protein digestibility in Anticarsia gemmatalis (velvetbean caterpillar) assessed as double the consumption at 76 ppm
Anticarsia gemmatalis [5] = experiment: Insecticidal activity against Anticarsia gemmatalis (velvetbean caterpillar) assessed as reduction in survival at > 76 ppm for more than 15 days
Anticarsia gemmatalis [6] = experiment: Insecticidal activity against Anticarsia gemmatalis (velvetbean caterpillar) assessed as prolongation of larval development upto 76 ppm
Anticarsia gemmatalis [7] = experiment: Effect on diet consumption in Anticarsia gemmatalis (velvetbean caterpillar) assessed as double the consumption at 76 ppm relative to control
Anticarsia gemmatalis [8] = experiment: Insecticidal activity against Anticarsia gemmatalis (velvetbean caterpillar) assessed as reduction in survival time at > 100 ppm
Anticarsia gemmatalis [9] = experiment: Insecticidal activity against Anticarsia gemmatalis (velvetbean caterpillar) assessed as sharp decline in proteolytic activity in midgut using L-BApNA and L-TAME at 9.5 ppm

N=C(N)c1ccc(/N=N/Nc2ccc(C(=N)N)cc2)cc1
active: inhibition (Anticarsia gemmatalis [1]) | inhibition (Anticarsia gemmatalis [2]) | inhibition (Anticarsia gemmatalis [3]) | Activity (Anticarsia gemmatalis [4]) | inhibition (Anticarsia gemmatalis [5]) | Activity (Anticarsia gemmatalis [6]) | Activity (Anticarsia gemmatalis [7]) | inhibition (Anticarsia gemmatalis [8]) | inhibition (Anticarsia gemmatalis [9])
